In brackets after ≈: the same amount, converted by molar mass.

One data set deals with MDR1 (Homo sapiens (Human), UniProt P08183). In words: MDR1-MDCK assay (apparent permeability, efflux ratio). The class given is in vitro ADME. The settings on record: human, MDCK-MDR1, 1 μM, read-out: MDR1-MDCK_Efflux Ratio.
Another data set deals with IRAK4 (Homo sapiens (Human), UniProt Q9NWZ3). In words: IRAK4 2-hour 1 mM ATP Biochemical Assay (MesoScale Detection format). The settings on record: 100 pM IRAK4, read-out: IRAK4 IC50.
Data set [1] in a line: Kinetic solubility assay (CLND), potassium phosphate buffer pH 6.8. The data set is classed as physicochemical. The settings on record: potassium phosphate buffer, pH 6.8, aqueous buffer, kinetic from dmso stock, pH 6.8, 2% DMSO, 24 hours at ambient temperature.
Source text: • Inject filtrates into the nitrogen detector for quantification on Analiza's Automated Discovery Workstation (ADW). • Solubility results generated in μg/mL

MDR1, sequence (P08183 whole entry): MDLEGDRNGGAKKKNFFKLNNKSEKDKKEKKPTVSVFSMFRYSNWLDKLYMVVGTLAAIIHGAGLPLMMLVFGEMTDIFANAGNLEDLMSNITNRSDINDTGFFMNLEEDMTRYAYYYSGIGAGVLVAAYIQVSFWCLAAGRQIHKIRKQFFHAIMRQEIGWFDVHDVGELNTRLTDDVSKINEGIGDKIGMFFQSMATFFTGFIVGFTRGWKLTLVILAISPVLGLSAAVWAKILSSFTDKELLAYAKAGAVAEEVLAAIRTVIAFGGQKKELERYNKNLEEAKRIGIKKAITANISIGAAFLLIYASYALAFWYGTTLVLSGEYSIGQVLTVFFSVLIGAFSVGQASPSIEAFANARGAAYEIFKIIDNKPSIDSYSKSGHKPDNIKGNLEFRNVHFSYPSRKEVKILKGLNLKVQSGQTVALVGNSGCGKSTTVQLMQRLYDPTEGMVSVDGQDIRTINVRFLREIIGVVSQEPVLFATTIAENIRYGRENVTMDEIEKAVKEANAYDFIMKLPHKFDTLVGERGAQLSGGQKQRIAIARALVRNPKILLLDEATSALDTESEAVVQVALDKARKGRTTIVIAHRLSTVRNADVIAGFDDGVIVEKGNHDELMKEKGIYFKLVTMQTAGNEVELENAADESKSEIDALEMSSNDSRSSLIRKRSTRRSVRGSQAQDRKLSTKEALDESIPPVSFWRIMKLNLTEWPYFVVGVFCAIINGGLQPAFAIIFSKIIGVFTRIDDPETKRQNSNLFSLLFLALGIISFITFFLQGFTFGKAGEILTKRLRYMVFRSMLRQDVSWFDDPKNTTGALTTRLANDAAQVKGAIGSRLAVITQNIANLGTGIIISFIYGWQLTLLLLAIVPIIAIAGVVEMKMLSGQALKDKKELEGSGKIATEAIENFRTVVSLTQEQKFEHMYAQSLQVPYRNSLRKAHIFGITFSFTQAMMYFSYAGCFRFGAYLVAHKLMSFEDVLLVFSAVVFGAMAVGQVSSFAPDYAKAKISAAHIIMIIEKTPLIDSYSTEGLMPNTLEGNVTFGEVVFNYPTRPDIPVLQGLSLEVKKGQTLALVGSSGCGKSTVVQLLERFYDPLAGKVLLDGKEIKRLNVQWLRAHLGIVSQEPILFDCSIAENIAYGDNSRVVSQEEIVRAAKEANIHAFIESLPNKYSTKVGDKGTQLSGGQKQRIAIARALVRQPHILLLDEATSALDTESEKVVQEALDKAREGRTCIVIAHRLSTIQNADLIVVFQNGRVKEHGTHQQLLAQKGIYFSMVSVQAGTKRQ
IRAK4, sequence (Q9NWZ3 whole entry): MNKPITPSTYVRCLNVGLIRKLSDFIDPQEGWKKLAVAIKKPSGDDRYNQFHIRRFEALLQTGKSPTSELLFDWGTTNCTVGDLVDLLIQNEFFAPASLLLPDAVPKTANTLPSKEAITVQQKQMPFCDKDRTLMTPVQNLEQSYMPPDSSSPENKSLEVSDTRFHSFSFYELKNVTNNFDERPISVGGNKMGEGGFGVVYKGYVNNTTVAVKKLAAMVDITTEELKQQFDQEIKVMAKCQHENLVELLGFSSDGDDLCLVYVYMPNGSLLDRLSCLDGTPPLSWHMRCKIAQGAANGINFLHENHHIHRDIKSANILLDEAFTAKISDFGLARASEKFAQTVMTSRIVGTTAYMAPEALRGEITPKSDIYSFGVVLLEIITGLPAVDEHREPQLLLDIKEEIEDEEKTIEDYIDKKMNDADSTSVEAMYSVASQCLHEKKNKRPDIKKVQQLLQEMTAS
Procedure for IRAK4: The 2-hour 1 mM ATP Biochemical Assay employed a MesoScale Detection (MSD) format.
The activity was quenched with 11 μl of 70 mM EDTA, pH 8.
To detect the phosphorylated biotinylated peptide substrate, 30 μl of the quenched reaction mixture was added to equivalent wells of a 384 well streptavidin coated MesoScale plate (Meso Scale Discovery #L21SA-1). After a 1 hour incubation of the plate for 1 hour at room temperature with gentle mixing, the plate wells were washed 3 times with 50 mM Tris, pH 7.5, 150 mM NaCl, 0.02% Tween-20.
A 25 μl volume of 1:500 anti-P-Threonine Rabbit polyclonal Antibody plus 1:500 Goat-anti-Rabbit Sulfo Tag Antibody (Meso Scale Discovery R^32AB-1) in 50 mM Tris, pH 7.5, 150 mM NaCl, 0.02% Tween-20 plus 2% BSA was then added to each well. After a 1-hour incubation of the plate for 1 hour at room temperature with gentle mixing, the plate wells were washed, 3 times with 50 mM Tris, pH 7.5, 150 mM NaCl, 0.02% Tween-20.

For the compound `CC[C@@H](C)Oc1nc2nn(C34COC(CF)(C3)C4)cc2cc1C(=O)Nc1cccn(C2CC2)c1=O` [Example 20, (R)-6-(sec-butoxy)-N-(1-cyclopropyl-2-oxo-1,2-dihydropyridin-3-yl)-2-(1-(fluoromethyl)-2-oxabicyclo[2.1.1]hexan-4-yl)-2H-pyrazolo[3,4-b]pyridine-5-carboxamide], the efflux ratio at 120 min, 1 μM at MDR1 was 2.26. On IRAK4, the IC50 is 4 nM.
Regarding `CC(C)Oc1cc2nn(C34COC(C)(C3)C4)cc2cc1C(=O)Nc1cccn([C@H]2C[C@H]2C)c1=O` [Example 96, 6-isopropoxy-2-(1-methyl-2-oxabicyclo[2.1.1]hexan-4-yl)-N-(1-((1S,2R)-2-methylcyclopropyl)-2-oxo-1,2-dihydropyridin-3-yl)-2H-indazole-5-carboxamide], the solubility at 24 h in data set [1] came to 13.6 µg/mL (≈ 29.4 µM).
`CC(C)Oc1nc2nn(C34COC(C)(C3)C4)cc2cc1C(=O)Nc1cccn([C@@H]2CC2(C)C)c1=O` [Example 22, (R)—N-(1-(2,2-dimethylcyclopropyl)-2-oxo-1,2-dihydropyridin-3-yl)-6-isopropoxy-2-(1-methyl-2-oxabicyclo[2.1.1]hexan-4-yl)-2H-pyrazolo[3,4-b]pyridine-5-carboxamide]: the efflux ratio at 120 min, 1 μM at MDR1 is 1.03. Moreover, the IC50 on IRAK4 came out at 27 nM.
`COCC12CC(n3cc4cc(C(=O)Nc5cccn([C@@H]6C[C@@H]6C)c5=O)c(OC(C)C)nc4n3)(CO1)C2` [Example 72, 6-isopropoxy-2-(1-(methoxymethyl)-2-oxabicyclo[2.1.1]hexan-4-yl)-N-(1-((1R,2S)-2-methylcyclopropyl)-2-oxo-1,2-dihydropyridin-3-yl)-2H-pyrazolo[3,4-b]pyridine-5-carboxamide]: at MDR1, the efflux ratio at 120 min, 1 μM came to 2.69. The IC50 on IRAK4 came out at 27.4 nM.
For the compound `CC(C)Oc1cc2nn(C34COC(CF)(C3)C4)cc2cc1C(=O)Nc1cccn([C@@H]2C[C@@H]2F)c1=O` [Example 53, N-(1-((1R,2S)-2-fluorocyclopropyl)-2-oxo-1,2-dihydropyridin-3-yl)-2-(1-(fluoromethyl)-2-oxabicyclo[2.1.1]hexan-4-yl)-6-isopropoxy-2H-indazole-5-carboxamide], the efflux ratio at 120 min, 1 μM at MDR1 is 6.21. Besides, at IRAK4, the half-inhibitory concentration (IC50) worked out at 9 nM.
Regarding `CC(C)Oc1nc2nn(C34COC(C)(C3)C4)cc2cc1C(=O)Nc1cccn([C@H]2C[C@H]2F)c1=O` [Example 84, N-(1-((1S,2R)-2-fluorocyclopropyl)-2-oxo-1,2-dihydropyridin-3-yl)-6-isopropoxy-2-(1-methyl-2-oxabicyclo[2.1.1]hexan-4-yl)-2H-pyrazolo[3,4-b]pyridine-5-carboxamide], the efflux ratio at 120 min, 1 μM on MDR1 was determined as 3.06. The same compound had a solubility at 24 h in data set [1] of 15.8 µg/mL (≈ 33.8 µM).
Compound `CC(C)Oc1cc2nn(C34COC(C)(C3)C4)cc2cc1C(=O)Nc1cccn([C@@H]2C[C@@H]2F)c1=O` (racemic) [Example 35, (racemic)-Cis-N-(1-(2-fluorocyclopropyl)-2-oxo-1,2-dihydropyridin-3-yl)-6-isopropoxy-2-(1-methyl-2-oxabicyclo[2.1.1]hexan-4-yl)-2H-indazole-5-carboxamide] yielded a solubility at 24 h in data set [1] of 65.7 µg/mL (≈ 141 µM).
Regarding `CC(C)Oc1nc2nn(C34COC(C)(C3)C4)cc2cc1C(=O)Nc1cccn([C@@H]2C[C@@H]2F)c1=O` [Example 83, N-(1-((1R,2S)-2-fluorocyclopropyl)-2-oxo-1,2-dihydropyridin-3-yl)-6-isopropoxy-2-(1-methyl-2-oxabicyclo[2.1.1]hexan-4-yl)-2H-pyrazolo[3,4-b]pyridine-5-carboxamide], at MDR1, the efflux ratio at 120 min, 1 μM was found to be 4.48. For the same compound, the solubility at 24 h in data set [1] was found to be 16.7 µg/mL (≈ 35.7 µM).
For `CC(C)Oc1nc2nn(C34COC(C)(C3)C4)cc2cc1C(=O)Nc1cccn([C@@H]2C[C@H]2F)c1=O` (single isomer, unassigned) [Example 44], in that order: 1.84 and 1.9 µg/mL (≈ 4.06 µM).
For the compound `CC(C)Oc1cc2nn(C34COC(C3)C4)cc2cc1C(=O)Nc1cccn([C@@H]2C[C@@H]2C)c1=O` [Example 74, 2-(2-oxabicyclo[2.1.1]hexan-4-yl)-6-isopropoxy-N-(1-((1R,2S)-2-methylcyclopropyl)-2-oxo-1,2-dihydropyridin-3-yl)-2H-indazole-5-carboxamide], the efflux ratio at 120 min, 1 μM at MDR1 is 2.07. Further, the IC50 on IRAK4 is 26.5 nM.
Take `CC(C)Oc1cc2nn(C34COC(C)(C3)C4)cc2cc1C(=O)Nc1cccn([C@@H]2C[C@H]2C)c1=O` (racemic) [Example 39, Racemic-(Trans)-6-isopropoxy-2-(1-methyl-2-oxabicyclo[2.1.1]hexan-4-yl)-N-(1-(2-methylcyclopropyl)-2-oxo-1,2-dihydropyridin-3-yl)-2H-indazole-5-carboxamide]: the solubility at 24 h in data set [1] came to 2.3 µg/mL (≈ 4.97 µM).
In the case of `CC(C)Oc1nc2nn(C34COC(C)(C3)C4)cc2cc1C(=O)Nc1cccn(C2C[C@@H]2F)c1=O` (mixture of isomers) [Example 42, racemic-(Trans)-N-(1-(2-fluorocyclopropyl)-2-oxo-1,2-dihydropyridin-3-yl)-6-isopropoxy-2-(1-methyl-2-oxabicyclo[2.1.1]hexan-4-yl)-2H-pyrazolo[3,4-b]pyridine-5-carboxamide], the efflux ratio at 120 min, 1 μM at MDR1 came out at 2.5. The compound also returned a solubility at 24 h in data set [1] of 2.8 µg/mL (≈ 5.99 µM).
In the case of `CC(C)Oc1nc2nn(C34COC(C)(C3)C4)cc2cc1C(=O)Nc1cccn([C@@H]2C[C@@H]2F)c1=O` (single isomer, unassigned) [Example 33], on MDR1, the efflux ratio at 120 min, 1 μM turned out to be 4.15. This compound registered a solubility at 24 h in data set [1] of 6.6 µg/mL (≈ 14.1 µM).
As to `CC(C)Oc1nc2nn(C34COC(C)(C3)C4)cc2cc1C(=O)Nc1cccn([C@@H]2C[C@@H]2F)c1=O` (racemic) [Example 32, (rac)-Cis-N-(1-(2-fluorocyclopropyl)-2-oxo-1,2-dihydropyridin-3-yl)-6-isopropoxy-2-(1-methyl-2-oxabicyclo[2.1.1]hexan-4-yl)-2H-pyrazolo[3,4-b]pyridine-5-carboxamide], the efflux ratio at 120 min, 1 μM on MDR1 is 4.18. In addition, the solubility at 24 h in data set [1] was 16 µg/mL (≈ 34.2 µM).
Turning to `CC(C)Oc1nc2nn(C34COC(C)(C3)C4)cc2cc1C(=O)Nc1cccn(C2(C)CC2)c1=O` [Example 18, 6-Isopropoxy-2-(1-methyl-2-oxabicyclo[2.1.1]hexan-4-yl)-N-(1-(1-methylcyclopropyl)-2-oxo-1,2-dihydropyridin-3-yl)-2H-pyrazolo[3,4-b]pyridine-5-carboxamide], the efflux ratio at 120 min, 1 μM at MDR1 amounted to 1.31. Besides, at IRAK4, the concentration for half-maximal inhibition (IC50) was determined as 4.3 nM.
For `CC(C)Oc1nc2nn(C34COC(CF)(C3)C4)cc2cc1C(=O)Nc1cccn(C2(C)CC2)c1=O` [Example 19, 2-(1-(Fluoromethyl)-2-oxabicyclo[2.1.1]hexan-4-yl)-6-isopropoxy-N-(1-(1-methylcyclopropyl)-2-oxo-1,2-dihydropyridin-3-yl)-2H-pyrazolo[3,4-b]pyridine-5-carboxamide], in that order: 1.91 and 6.6 nM.
Consider `COCC12CC(n3cc4cc(C(=O)Nc5cccn([C@@H]6C[C@H]6F)c5=O)c(OC5CCC5)cc4n3)(CO1)C2` [Example 57, 6-cyclobutoxy-N-(1-((1R,2R)-2-fluorocyclopropyl)-2-oxo-1,2-dihydropyridin-3-yl)-2-(1-(methoxymethyl)-2-oxabicyclo[2.1.1]hexan-4-yl)-2H-indazole-5-carboxamide], for which the efflux ratio at 120 min, 1 μM at MDR1 was determined as 2.39. Also, the concentration for half-maximal inhibition (IC50) on IRAK4 worked out at 1.7 nM.
With `CC(C)Oc1nc2nn(C34COC(C)(C3)C4)cc2cc1C(=O)Nc1cccn([C@H]2CC2(C)C)c1=O` [Example 23, (S)—N-(1-(2,2-dimethylcyclopropyl)-2-oxo-1,2-dihydropyridin-3-yl)-6-isopropoxy-2-(1-methyl-2-oxabicyclo[2.1.1]hexan-4-yl)-2H-pyrazolo[3,4-b]pyridine-5-carboxamide], the efflux ratio at 120 min, 1 μM at MDR1 was found to be 1.15. Also, the IC50 at IRAK4 was 1.3 nM.
`CC(C)Oc1cc2nn(C34COC(C)(C3)C4)cc2cc1C(=O)Nc1cccn([C@H]2C[C@H]2F)c1=O` (single isomer, unassigned) [Example 37]: at MDR1, the efflux ratio at 120 min, 1 μM was 2.71. Also, the solubility at 24 h in data set [1] is 56 µg/mL (≈ 120 µM).
With `CC[C@H](C)Oc1nc2nn(C34COC(CF)(C3)C4)cc2cc1C(=O)Nc1cccn(C2CC2)c1=O` [Example 21, (S)-6-(sec-butoxy)-N-(1-cyclopropyl-2-oxo-1,2-dihydropyridin-3-yl)-2-(1-(fluoromethyl)-2-oxabicyclo[2.1.1]hexan-4-yl)-2H-pyrazolo[3,4-b]pyridine-5-carboxamide], on MDR1, the efflux ratio at 120 min, 1 μM came to 3.33. Also, the IC50 at IRAK4 was determined as 1.1 nM.
As for `CC(C)Oc1cc2nn(C34COC(C)(C3)C4)cc2cc1C(=O)Nc1cccn([C@@H]2C[C@H]2F)c1=O` (single isomer, unassigned) [Example 54], the efflux ratio at 120 min, 1 μM on MDR1 came to 1.77. The compound further gave a solubility at 24 h in data set [1] of 66.5 µg/mL (≈ 143 µM).
For `CC(C)Oc1cc2nn(C34COC(CF)(C3)C4)cc2cc1C(=O)Nc1cccn([C@H]2C[C@@H]2C)c1=O` (single isomer, unassigned) [Example 70], the efflux ratio at 120 min, 1 μM on MDR1 stood at 1.59. On IRAK4, the IC50 was 2.3 nM.
As for `CC(C)Oc1nc2nn(C34COC(C3)C4)cc2cc1C(=O)Nc1cccn([C@@H]2C[C@@H]2C)c1=O` [Example 75, 2-(2-oxabicyclo[2.1.1]hexan-4-yl)-6-isopropoxy-N-(1-((1R,2S)-2-methylcyclopropyl)-2-oxo-1,2-dihydropyridin-3-yl)-2H-pyrazolo[3,4-b]pyridine-5-carboxamide], the efflux ratio at 120 min, 1 μM at MDR1 stood at 3.63. For the same compound, the IC50 at IRAK4 was 36.9 nM.
As to `COCC12CC(n3cc4cc(C(=O)Nc5cccn([C@@H]6C[C@@H]6C)c5=O)c(OC(C)C)cc4n3)(CO1)C2` [Example 73, 6-isopropoxy-2-(1-(methoxymethyl)-2-oxabicyclo[2.1.1]hexan-4-yl)-N-(1-((1R,2S)-2-methylcyclopropyl)-2-oxo-1,2-dihydropyridin-3-yl)-2H-indazole-5-carboxamide], the efflux ratio at 120 min, 1 μM on MDR1 came to 1.51. Besides, the IC50 at IRAK4 stood at 43.2 nM.

As a reminder, the IC50 is the concentration needed to halve the response being measured. For orientation: solubility means the dissolved amount per volume that the medium holds. Read a low solubility as a poorly soluble substance.

The values are drawn from patent US20250268877A1 (BIOGEN MA INC., priority 2020, published 2025).
